Test results from patent publication US12661410B2, “Compounds for targeted degradation of RET” (C4 Therapeutics, Inc., priority 2020, dated 2026).
Positions count from the first letter of the chain named. Where two headings read alike, the source gives them in different places.

How the values were obtained:
RET(KD: 658-1114 G810R) = target: T1, RET(KD: 658-1114 G810R) (Homo sapiens, UniProt P07949, G810R); assay: HiBiT-Degradation, RET G810R degradation assay (Nano-Glo HiBiT Lytic), 293T.165 cells; format: cell-based; settings: for Emax / DC50: 6.0 hours; for Emax: % remaining protein, read-out: 293T.165 RET(KD: 658-1114 G810R) 6.0 hours (Emax); for DC50: read-out: 293T.165 RET(KD: 658-1114 G810R) 6.0 hours (DC50)
T1 construct: 658-1114; expressed in transfected cells; host or cells: 293T.165 (293T cells, generated in-house)
T1 sequence (P07949 658-1114 G810R): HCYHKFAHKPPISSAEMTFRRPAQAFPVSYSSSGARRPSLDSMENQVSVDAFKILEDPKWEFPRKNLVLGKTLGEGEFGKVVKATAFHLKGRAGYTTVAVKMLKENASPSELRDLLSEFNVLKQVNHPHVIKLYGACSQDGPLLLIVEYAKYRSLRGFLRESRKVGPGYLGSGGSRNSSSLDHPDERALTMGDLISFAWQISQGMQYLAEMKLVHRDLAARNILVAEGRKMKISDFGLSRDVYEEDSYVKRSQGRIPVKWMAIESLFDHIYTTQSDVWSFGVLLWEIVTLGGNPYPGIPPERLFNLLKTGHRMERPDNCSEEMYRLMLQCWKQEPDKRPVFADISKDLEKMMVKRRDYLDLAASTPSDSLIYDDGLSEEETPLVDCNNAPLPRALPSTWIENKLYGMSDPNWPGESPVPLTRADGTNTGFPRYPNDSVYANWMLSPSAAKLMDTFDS
Summary of the method: (§1)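 HEK293T lines stably expressing HiBiT-tagged RET kinase domain (WT: 293T.144; G810R: 293T.165) were treated with degraders for 6 h in duplicate, 11-point half-log series from 10 μM top dose. Lysis with Nano-Glo HiBiT Lytic reagent, luminescence read; DC50 and Emax (% remaining protein) derived from dose-response curves.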

RET (658-1114) = target: T2, RET (658-1114) (Homo sapiens, UniProt P07949); assay: HiBiT-Degradation, RET wild-type degradation assay (Nano-Glo HiBiT Lytic), 293T.144 cells; format: cell-based; settings: for Emax / DC50: 6.0 hours; for Emax: read-out: 293T.144 RET (658-1114) 6.0 hours (Emax); for DC50: read-out: 293T.144 RET (658-1114) 6.0 hours (DC50)
T2 construct: 658-1114; expressed in transfected cells; host or cells: 293T.144 (293T cells, generated in-house)
T2 sequence (P07949 658-1114): T1 sequence (P07949 658-1114 G810R) with R153G
Summary of the method: as §1

[1] = half-maximal degradation concentration

SMILES	293T.165 RET(KD: 658-1114 G810R) 6.0 hours (IP) [nM] (RET(KD: 658-1114 G810R))	Emax (RET(KD: 658-1114 G810R))	DC50 (RET(KD: 658-1114 G810R); [1])	293T.144 RET (658-1114) 6.0 hours (IP) [nM] (RET (658-1114))	Emax (RET (658-1114); % remaining protein)	DC50 (RET (658-1114); [1])	293T.165 RET(KD: 658-1114 G810R) 6.0 hours (Emax) (RET(KD: 658-1114 G810R); HiBiT-Degradation)	293T.165 RET(KD: 658-1114 G810R) 6.0 hours (IP) [nM] (RET(KD: 658-1114 G810R); HiBiT-Degradation)	DC50 (RET(KD: 658-1114 G810R); HiBiT-Degradation)	293T.144 RET (658-1114) 6.0 hours (IP) [nM] (RET (658-1114); HiBiT-Degradation)	DC50 (RET (658-1114); HiBiT-Degradation)	Emax (RET (658-1114); HiBiT-Degradation)
CCC1(C(=O)Nc2ccc(F)cc2)CCN(c2ccc(-c3nc(-c4cnn(C5CCN(C(=O)CC6(O)CCN(c7ccc(NC8CCC(=O)NC8=O)cc7Cl)CC6)CC5)c4)cn4ncc(C#N)c34)cn2)CC1 (centres unmarked) [Compound 100, 1-[5-[6-[1-[1-[2-[1-[2-chloro-4-[(2,6-dioxo-3-piperidyl)amino]phenyl]-4-hydroxy-4-piperidyl]acetyl]-4-piperidyl]pyrazol-4-yl]-3-cyano-pyrazolo[1,5-a]pyrazin-4-yl]-2-pyridyl]-4-ethyl-N-(4-fluorophenyl)piperidine-4-carboxamide]	++++ (<50 nM = ++++)	< 30%	< 100 nM	++++ (<50 nM = ++++)	< 30%	< 50 nM						
COc1cc(N2CCN([C@H]3CC[C@H](n4cc(-c5cn6ncc(C#N)c6c(-c6ccc(N7C[C@H]8COC[C@@H](C7)N8CC7CCOCC7)nc6)n5)cn4)CC3)CC2)c(F)cc1NC1CCC(=O)NC1=O (single isomer, unassigned) [Compound 166]	++++ (<50 nM = ++++)	< 30%	< 100 nM	++++ (<50 nM = ++++)	< 30%	< 50 nM						
N#Cc1cnn2cc(-c3ccc(N4CCN(C(=O)CN5CCC(c6ccc(NC7CCC(=O)NC7=O)cc6)CC5)CC4)cc3)cc(-c3ccc(N4CCN(CCc5ccccn5)CC4)nc3)c12 (centres unmarked) [Compound 18, 6-(4-(4-(2-(4-(4-((2,6-Dioxopiperidin-3-yl)amino)phenyl)piperidin-1-yl)acetyl)piperazin-1-yl)phenyl)-4-(6-(4-(2-(pyridin-2-yl)ethyl)piperazin-1-yl)pyridin-3-yl)pyrazolo[1,5-a]pyridine-3-carbonitrile]		< 30%	< 100 nM				++++ (< 30% = ++++)	++++ (< 50 nM = ++++)	< 100 nM	++++ (< 50 nM = ++++)	< 50 nM	< 30%
CCC1(C(=O)NC(C)C)CCN(c2ccc(-c3nc(-c4cnn([C@H]5CC[C@H](N6CCC(c7ccc(N[C@@H]8CCC(=O)NC8=O)cc7F)CC6)CC5)c4)cn4ncc(C#N)c34)cn2)CC1 (single isomer, unassigned) [Compound 124]	++++ (<50 nM = ++++)	< 30%	< 50 nM	++++ (<50 nM = ++++)	< 30%	< 50 nM						
CCC1(C(=O)NC(C)C)CCN(c2ccc(-c3nc(-c4cnn(C5CCN(C(=O)CC6(O)CCN(c7cc(OC)c(NC8CCC(=O)NC8=O)cc7F)CC6)CC5)c4)cn4ncc(C#N)c34)cn2)CC1 (centres unmarked) [Compound 91, 1-[5-[3-cyano-6-[1-[1-[2-[1-[4-[(2,6-dioxo-3-piperidyl)amino]-2-fluoro-5-methoxy-phenyl]-4-hydroxy-4-piperidyl]acetyl]-4-piperidyl]pyrazol-4-yl]pyrazolo[1,5-a]pyrazin-4-yl]-2-pyridyl]-4-ethyl-N-isopropyl-piperidine-4-carboxamide]	++++ (<50 nM = ++++)	< 30%	< 50 nM	++++ (<50 nM = ++++)	< 30%	< 50 nM						
COc1ccc(CN2C3COCC2CN(c2ccc(-c4nc(-c5cnn([C@H]6CC[C@H](N7CCN(c8cc(OC)c(NC9CCC(=O)NC9=O)cc8F)CC7)CC6)c5)cn5ncc(C#N)c45)cn2)C3)cn1 (some centres unmarked) [Compound 165, 6-[1-[4-[4-[4-[(2,6-dioxo-3-piperidyl)amino]-2-fluoro-5-methoxy-phenyl]piperazin-1-yl]cyclohexyl]pyrazol-4-yl]-4-[6-[9-[(6-methoxy-3-pyridyl)methyl]-3-oxa-7,9-diazabicyclo[3.3.1]nonan-7-yl]-3-pyridyl]pyrazolo[1,5-a]pyrazine-3-carbonitrile]	+++ (<100 nM = +++)	< 30%	< 100 nM	++++ (<50 nM = ++++)	< 30%	< 50 nM						
CC1(NC(=O)Cc2ccccc2)CCN(c2ccc(-c3cc(-c4ccc(N5CCN(C(=O)CN6CCC(c7ccc(NC8CCC(=O)NC8=O)cc7F)CC6)CC5)cc4)cn4ncc(C#N)c34)cn2)CC1 (centres unmarked) [Compound 23, N-(1-(5-(3-Cyano-6-(4-(4-(2-(4-(4-((2,6-dioxopiperidin-3-yl)amino)-2-fluorophenyl)piperidin-1-yl)acetyl)piperazin-1-yl)phenyl)pyrazolo[1,5-a]pyridin-4-yl)pyridin-2-yl)-4-methylpiperidin-4-yl)-2-phenylacetamide]		< 30%	< 100 nM				++++ (< 30% = ++++)	+++ (<100 nM = +++)	< 100 nM	++++ (< 50 nM = ++++)	< 50 nM	< 30%
COc1cc(N2CCN([C@H]3CC[C@H](n4cc(-c5cn6ncc(C#N)c6c(-c6ccc(N7C[C@@H]8[C@@H](CNC(=O)c9ncccc9Cl)[C@@H]8C7)nc6)n5)cn4)CC3)CC2)c(F)cc1NC1CCC(=O)NC1=O (stereo partly drawn) [Compound 168, 3-chloro-N-[[(1S,5R)-3-[5-[3-cyano-6-[1-[4-[4-[4-[(2,6-dioxo-3-piperidyl)amino]-2-fluoro-5-methoxy-phenyl]piperazin-1-yl]cyclohexyl]pyrazol-4-yl]pyrazolo[1,5-a]pyrazin-4-yl]-2-pyridyl]-3-azabicyclo[3.1.0]hexan-6-yl]methyl]pyridine-2-carboxamide]	++++ (<50 nM = ++++)	< 30%	< 100 nM	++++ (<50 nM = ++++)	< 30%	< 50 nM						
Cn1nc(N2CCC(=O)NC2=O)c2ccc(C3CCN(CC(=O)N4CCC(n5cc(-c6cc(-c7ccc(N8CCN(Cc9ccccn9)CC8)nc7)c7c(C#N)cnn7c6)cn5)CC4)CC3)cc21 [Compound 13, 6-(1-(1-(2-(4-(3-(2,4-dioxotetrahydropyrimidin-1(2H)-yl)-1-methyl-1H-indazol-6-yl)piperidin-1-yl)acetyl)piperidin-4-yl)-1H-pyrazol-4-yl)-4-(6-(4-(pyridin-2-ylmethyl)piperazin-1-yl)pyridin-3-yl)pyrazolo[1,5-a]pyridine-3-carbonitrile]		< 50%	< 100 nM				+++ (<50% = +++)	++++ (< 50 nM = ++++)	< 100 nM	++++ (< 50 nM = ++++)	< 50 nM	< 30%
CC(=O)N1CCN(c2ccc(-c3nc(-c4ccc(N5CCN(C(=O)CN6CCC(c7ccc(NC8CCC(=O)NC8=O)cc7)CC6)CC5)cc4)cn4ncc(C#N)c34)cn2)CC1 (centres unmarked) [Compound 27, 4-(6-(4-acetylpiperazin-1-yl)pyridin-3-yl)-6-(4-(4-(2-(4-(4-((2,6-dioxopiperidin-3-yl)amino)phenyl)piperidin-1-yl)acetyl)piperazin-1-yl)phenyl)pyrazolo[1,5-a]pyrazine-3-carbonitrile]		< 30%	< 50 nM				++++ (< 30% = ++++)	++++ (< 50 nM = ++++)	< 50 nM	++++ (< 50 nM = ++++)	< 50 nM	< 30%
